Patent US9388189B2, “Pyrrolotriazinone derivatives as PI3K inhibitors” (ALMIRALL, S.A., priority 2012, dated 2016)
pIC50: −log10 of the molar value.

Target: PI3Kδ (PI3Kd) (Homo sapiens (Human), UniProt O00329)
Assay: PI3K HTRF enzymatic inhibition assay (cell-free), delta isoform
Details: read-out: IC50 PI3Kd HTRF; recombinant PI3K delta, [ATP] 15 μM, [PIP2] 2 μM, 30 min preincubation

PI3Kδ (PI3Kd), sequence (O00329 whole entry, canonical isoform): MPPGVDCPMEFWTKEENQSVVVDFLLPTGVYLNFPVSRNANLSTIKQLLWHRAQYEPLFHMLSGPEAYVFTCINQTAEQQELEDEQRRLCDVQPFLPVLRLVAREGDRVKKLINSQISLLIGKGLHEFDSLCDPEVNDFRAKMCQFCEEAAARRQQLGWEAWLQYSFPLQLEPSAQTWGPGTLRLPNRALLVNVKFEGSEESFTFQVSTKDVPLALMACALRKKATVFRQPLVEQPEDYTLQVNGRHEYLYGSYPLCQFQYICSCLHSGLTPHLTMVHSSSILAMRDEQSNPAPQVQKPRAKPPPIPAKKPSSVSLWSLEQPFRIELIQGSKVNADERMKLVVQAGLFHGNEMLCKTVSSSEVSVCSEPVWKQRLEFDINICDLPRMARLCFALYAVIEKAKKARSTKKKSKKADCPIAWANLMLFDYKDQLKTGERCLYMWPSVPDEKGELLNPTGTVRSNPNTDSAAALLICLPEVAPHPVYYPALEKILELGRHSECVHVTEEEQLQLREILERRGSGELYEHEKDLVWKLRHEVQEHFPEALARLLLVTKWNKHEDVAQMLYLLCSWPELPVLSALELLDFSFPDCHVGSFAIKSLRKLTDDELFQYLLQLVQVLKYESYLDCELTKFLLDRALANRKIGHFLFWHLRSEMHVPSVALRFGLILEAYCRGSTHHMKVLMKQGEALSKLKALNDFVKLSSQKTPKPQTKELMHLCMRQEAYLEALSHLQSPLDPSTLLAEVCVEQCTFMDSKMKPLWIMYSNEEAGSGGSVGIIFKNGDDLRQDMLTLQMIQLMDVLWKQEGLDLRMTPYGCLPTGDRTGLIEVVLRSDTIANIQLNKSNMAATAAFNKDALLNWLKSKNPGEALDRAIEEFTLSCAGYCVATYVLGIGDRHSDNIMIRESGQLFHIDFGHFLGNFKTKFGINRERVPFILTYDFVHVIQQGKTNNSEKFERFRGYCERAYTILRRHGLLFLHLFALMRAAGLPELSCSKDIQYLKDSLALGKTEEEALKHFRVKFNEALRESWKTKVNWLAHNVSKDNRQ
PI3Kδ (PI3Kd), sequence (P27986 whole entry partner, canonical isoform): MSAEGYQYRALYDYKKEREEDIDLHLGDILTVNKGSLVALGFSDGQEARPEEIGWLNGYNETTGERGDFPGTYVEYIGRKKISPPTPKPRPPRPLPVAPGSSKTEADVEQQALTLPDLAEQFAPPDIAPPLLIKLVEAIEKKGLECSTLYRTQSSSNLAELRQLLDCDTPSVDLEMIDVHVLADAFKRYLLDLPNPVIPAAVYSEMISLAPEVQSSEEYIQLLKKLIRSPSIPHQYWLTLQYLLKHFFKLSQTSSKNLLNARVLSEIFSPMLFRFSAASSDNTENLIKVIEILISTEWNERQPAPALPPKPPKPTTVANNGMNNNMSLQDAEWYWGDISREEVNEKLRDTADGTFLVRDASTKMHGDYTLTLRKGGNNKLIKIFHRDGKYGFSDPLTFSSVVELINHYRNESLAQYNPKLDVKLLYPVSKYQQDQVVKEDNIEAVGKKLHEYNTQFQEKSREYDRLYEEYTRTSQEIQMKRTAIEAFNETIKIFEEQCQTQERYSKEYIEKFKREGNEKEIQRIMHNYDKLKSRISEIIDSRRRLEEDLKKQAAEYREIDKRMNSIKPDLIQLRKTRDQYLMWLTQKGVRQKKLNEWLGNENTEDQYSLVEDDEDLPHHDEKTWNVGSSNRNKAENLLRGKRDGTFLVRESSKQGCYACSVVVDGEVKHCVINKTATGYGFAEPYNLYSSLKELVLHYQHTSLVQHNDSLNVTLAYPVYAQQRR

pIC50	Molecule
8.70	Cc1ccn2nc([C@H](C)Nc3ncnc4[nH]cc(-c5ccc(NS(=O)(=O)N(C)C)cc5O)c34)n(-c3ccccc3)c(=O)c12 [Example 239, N′-[3-Hydroxy-4-(4-{[(1S)-1-(5-methyl-4-oxo-3-phenyl-3,4-dihydropyrrolo[2,1-f][1,2,4]triazin-2-yl)ethyl]amino}-7H-pyrrolo[2,3-d]pyrimidin-5-yl)phenyl]-N,N-dimethylsulfamide]
9.10	(S)—N-(6-(4-Amino-6-((1-(5-methyl-4-oxo-3-phenyl-3,4-dihydropyrrolo[2,1-f][1,2,4]triazin-2-yl)ethyl)amino)pyrimidin-5-yl)-1H-indol-4-yl)-4-hydroxybenzenesulfonamide [Example 190]
7.39	(S)—N-((1H-Pyrazol-4-yl)ethyl)-4-((1-(5-methyl-4-oxo-3-phenyl-3,4-dihydropyrrolo[2,1-f][1,2,4]triazin-2-yl)ethyl)amino)-7H-pyrrolo[2,3-d]pyrimidine-5-carboxamide [Example 88]
